Tests used:
HDAC2 = HDAC2 (Homo sapiens (Human), UniProt Q92769); test: HDAC enzyme inhibition assay (Fluor-de-Lys), HDAC2; assay type: biochemical; conditions: 2 hours pre-incubation
Experimental: The HDAC activity inhibition assay was performed as follows to determine the ability of a test compound to inhibit HDAC enzymatic activity. Serial dilutions of HDAC inhibitors were prepared in HDAC assay buffer (25 mM Tris/HCl, pH 8.0, 137 mM NaCl, 2.7 mM KCl, 1 mM MgCl2, pH 8) in 96-well assay plates (Fisher scientific, #07-200-309) and were pre-incubated for 2 hours at room temperature in the presence of 125 μg/ml BSA and purified HDAC1 (BPS Bioscience, San Diego, Calif., #50051), HDAC2 (BPS Bioscience, #50053), or HDAC3/NcoR2 (BPS Bioscience, #50003) at concentrations of 1.25, 1.32, and 0.167 μg/mL, respectively. Following pre-incubation, Fluor-de-Lys™ substrate (Enzo Life Sciences, Plymouth Meeting, Pa., BML-KI104-0050) was added to a final concentration of 10 μM and plates were further incubated for 30 minutes at room temperature. The enzymatic reaction was stopped by addition of Trichostatin A (Sigma-Aldrich, St Louis, Mo., #T8552, final concentration: 100 nM) and trypsin (MP Biomedicals, Solon, Ohio, #02101179) was added to reach a final concentration of 100 μg/mL. After a 15 minute incubation at room temperature, fluorescence was recorded using a Spectramax M2 fluorometer (Molecular Devices, Sunnyvale, Calif.) with excitation at 365 nm and emission at 460 nm. IC50 values were calculated by using a sigmoidal dose-response (variable slope) equation in GraphPad Prism® 5 for Windows (GraphPad Software, La Jolla, Calif.). Results for selected compounds in the HDAC activity inhibition assay are presented in Table 5 (IC50 ranges: IA>20 μM, A<1 μM, 1<B<5 μM, 5<C<10 μM, 10<D<20 μM, ND: not determined).

[1] = Hepatocyte stability and metabolism (parent remaining, acid and OPD formation); assay type: in vitro ADME; conditions: human hepatocytes; for % left 6H Hum hep: 5 μM; for OPD: OPD formation by LC-MS/MS after phenylglyoxal derivatisation
Experimental: The inventors have found, however, that formula (I) compound metabolites are substantially free of OPD when formula (I) compounds are subjected to conditions intended to mimic in vivo metabolism pathways. As used herein, the term “substantially free of OPD” means that OPD was not detected by LC-MS/MS after (i) incubating a formula (I) compound with human, monkey, dog and rat hepatocytes and (ii) treating the metabolite milieu with an acidic solution of phenylglyoxal in an organic solvent (this addition leads to quantitative formation of 2-phenylquinoxaline, which can be easily quantified with a low lower limit of quantitation (LLOQ)). See the Examples section.
To assess the stability and metabolism of RGFP compounds and to quantify the metabolites in hepatocytes. This assay was designed to evaluate the metabolism of RGFP compounds, following their incubation with human, monkey, dog and rat hepatocytes by monitoring either parent drug disappearance or metabolite appearance using LC-MS/MS. The results are shown in Table 5 ((% Left in Hep: IA<10%, 50%<A, 50%>B>30%, 30%>C>10%, ND: not determined).
Procedure: Turn on the water-bath heater to 37° C. Take out the KHB buffer and make sure it is at room temp before use. Prepare 2.5 mM concentration of RGFP compound in DMSO stock. Add 10 μL of above DMSO stock to 2490 μL KHB buffer; final concentration of RGFP compound will be 10 μM. Pre-warm 45 ml InVitro HT Medium to 37° C. in a sterile 50 ml conical tube. Add 1.0 mL Torpedo Antibiotic Mix per 45 mL InVitro HT medium. Transfer 13 mL of warm HT medium with Antibiotic Mix into a 15 mL conical tube. Carefully remove the hepatocyte vials from liquid nitrogen (liquid phase). Immediately immerse the vial into a 37° C. water bath. Shake gently until the ice melts entirely. […] Immediately empty contents of the vial into 13 ml of pre-warmed InVitro HT Medium with antibiotics. Rinse the vial with the HT media just transferred the hepatocytes to, in order to ensure complete transfer. Centrifuge the cell suspension at 600 RPM for 5 minutes at room temperature. […] Add 1.0 ml of KHB (at room temperature) buffer to the tube of hepatocyte pellet. Loosen the cell pellet by gently swirling the centrifuge tube. Transfer 100 μL of above solution to a different tube and add 900 μL of KHB buffer to count the cells. Determine the total cell count and the number of viable cells using the Trypan Blue exclusion method. Once the cell count is obtained, multiply the number by 10 (attributing to the dilution factor). Add required volume of KHB buffer to the tube containing hepatocytes such that the final count will be 2 million cells/mL. Dispense 50 μL of 2 million cells/ml to a 96 well plate and then add 50 μl of DMSO stock to respective wells (such that, the concentration of RGFP compounds is 5 μM and number of cells are 100000 in each well). Place the plates on a shaker in a 37° C. incubator with 5% CO2. Separate plates for each time point are advisable (Time points: 0 h, 1 h, 2 h, and 6 h). After each time point, add 100 μL of quenching solution. Quenching solution is an acetonitrile solution containing RGFP531 (10 μM) internal standard, 0.1% formic acid and phenylglyoxol (400 μM). The formic acid and phenylglyoxal is used for the identification and quantification of OPD as mentioned above. Pipette up and down a few times to ensure a complete stop of reaction. Transfer all the solution into a 1.5 ml tube, vortex thoroughly, and centrifuge at 14000 RPM at 4° C. for 5 minutes to precipitate cell debris. Transfer the 150 μL of supernatant to vials for analysis on LC-MS/MS.
LC-MS/MS parameters for RGFP compounds and metabolites including OPD: LC-MS/MS Parameters for API 2000 QTrap: System: HPLC 1100; Column: Gemini C18, 5 μM 4.6×50 mm; Column Temp: Ambient; MS: API 2000 QTrap (MI mode); Mobile Phase A: HPLC water with 0.05% Formic Acid; Mobile Phase B: Acetonitrile with 0.05% Formic Acid.

[2] = Acid stability determination; assay type: physicochemical; conditions: 0.01 M HCl, 50° C., 100 μM
Experimental: A 100 μM solution of test compound was prepared by dilution of a 10 mM DMSO stock solution in a 0.01 M solution of HCl in deionized water. Immediately after mixing, an aliquot (100 μL) was sampled and analyzed by HPLC/UV. The area under the compound peak was determined and used as the time zero reference point. The remainder of the acid sample was incubated at 50° C. and samples were taken after 2, 4, and 24 hours of incubation. On a few occasions, samples were taken at 30 rather than 24 hours. These were analyzed by the same HPLC/UV method and the area of the peak corresponding to the test compound was measured. Percent remaining at a given time point was then calculated as the ratio of the area under the peak after incubation to that at time zero times 100. In those cases where a 30 hour time point was recorded, the percent remaining at 24 hours was obtained by interpolation of the percent remaining versus time curve assuming a unimolecular process, i.e. a monoexponential decay. Percent remaining after 24 hours incubation are presented in Table 5 below, where A corresponds to more than 60%, B is between 40 and 60%, C covers 20 to 40% and D means less than 20%.

Chain of HDAC2 (Q92769 whole entry): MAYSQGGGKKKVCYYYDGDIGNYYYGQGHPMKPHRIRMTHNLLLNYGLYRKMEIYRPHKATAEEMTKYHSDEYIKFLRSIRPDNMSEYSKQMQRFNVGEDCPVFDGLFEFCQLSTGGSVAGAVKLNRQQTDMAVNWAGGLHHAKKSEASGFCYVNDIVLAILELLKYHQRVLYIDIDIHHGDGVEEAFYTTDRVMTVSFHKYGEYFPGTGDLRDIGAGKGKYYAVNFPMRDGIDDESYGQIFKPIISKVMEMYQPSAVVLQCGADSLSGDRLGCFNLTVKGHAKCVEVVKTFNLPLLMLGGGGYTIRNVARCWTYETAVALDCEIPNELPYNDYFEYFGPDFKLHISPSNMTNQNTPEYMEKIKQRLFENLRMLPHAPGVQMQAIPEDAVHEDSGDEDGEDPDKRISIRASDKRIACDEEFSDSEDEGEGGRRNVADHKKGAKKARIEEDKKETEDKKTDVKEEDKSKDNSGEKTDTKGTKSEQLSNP

Which IC50 (HDAC2) does the source give for `Nc1ccccc1NC(=O)c1ccc2c(cnn2Cc2cccnc2)c1` [Compound A1] here?
Its IC50 is less than 1000 nM.

And the “% left 6H Hum hep” value [1]?
The value was “A (50%<A)”.

What about the OPD [1] of the same compound?
Its OPD is “No OPD”.

With `Nc1cc(F)ccc1NC(=O)c1ccc2c(cnn2Cc2cncc(F)c2)c1` [Compound A7] as the compound, how does the “Acid Stability % Left 24 hr” value [2] read?
Its value is “B (B is between 40 and 60%)”.

And the IC50 (HDAC2)?
The IC50 was less than 1000 nM.

And the “% left 6H Hum hep” value [1]?
The value was “B (50%>B>30%)”.

What about the OPD [1] of the same compound?
The OPD was “No OPD”.

Which results are given for `Nc1ccccc1NC(=O)c1ccc2c(cnn2Cc2ccc(F)c(F)c2)c1` [Compound A9]?
Acid Stability % Left 24 hr [2]: A (A corresponds to more than 60%); IC50 (HDAC2): < 1000 nM; % left 6H Hum hep [1]: B (50%>B>30%); OPD [1]: No OPD

For `Cc1ccc(Cn2cc3cc(C(=O)Nc4ccccc4N)ccc3n2)c(C)n1` [Compound A15], which IC50 (HDAC2) is on record?
The IC50 was 1000 to 5000 nM.

What about the “% left 6H Hum hep” value [1] of the same compound?
Its value is “A (50%<A)”.

And the OPD [1]?
Its OPD is “No OPD”.

Which results are given for `Cn1cc(Cn2ncc3cc(C(=O)Nc4ccccc4N)ccc32)cn1` [Compound A3]?
IC50 (HDAC2): < 1000 nM; % left 6H Hum hep [1]: A (50%<A); OPD [1]: No OPD

Which “Acid Stability % Left 24 hr” value [2] does the source give for `Nc1cc(F)ccc1NC(=O)c1ccc2c(cnn2Cc2cccnc2)c1` [Compound A6] here?
Its value is “A (A corresponds to more than 60%)”.

And the IC50 (HDAC2)?
The IC50 was less than 1000 nM.

What about the “% left 6H Hum hep” value [1] of the same compound?
The value was “B (50%>B>30%)”.

What about the OPD [1] of the same compound?
The OPD was “No OPD”.

With `Nc1ccccc1NC(=O)c1ccc2c(cnn2Cc2cncc(F)c2)c1` [Compound A4, N-(2-aminophenyl)-1-((5-fluoropyridin-3-yl)methyl)-1H-indazole-5-carboxamide] as the compound, how does the “% left 6H Hum hep” value [1] read?
Its value is “A (50%<A)”.

And the OPD [1]?
The OPD was “No OPD”.

For `Nc1ccccc1NC(=O)c1ccc2nn(Cc3cncc(F)c3)cc2c1` [Compound A14, N-(2-aminophenyl)-2-((5-fluoropyridin-3-yl)methyl)-2H-indazole-5-carboxamide], which “% left 6H Hum hep” value [1] is on record?
The value was “A (50%<A)”.

What about the OPD [1] of the same compound?
Its OPD is “No OPD”.

Which results are given for `Cc1ccc(Cn2ncc3cc(C(=O)Nc4ccc(F)cc4N)ccc32)c(C)n1` [Compound A8]?
Acid Stability % Left 24 hr [2]: A (A corresponds to more than 60%); IC50 (HDAC2): 1000 to 5000 nM; % left 6H Hum hep [1]: A (50%<A); OPD [1]: No OPD

Which results are given for `Nc1ccccc1NC(=O)c1ccc2c(cnn2Cc2ccccc2)c1` [Compound A2]?
Acid Stability % Left 24 hr [2]: B (B is between 40 and 60%); IC50 (HDAC2): < 1000 nM; % left 6H Hum hep [1]: B (50%>B>30%); OPD [1]: No OPD

Which results are given for `Nc1ccccc1NC(=O)c1ccc2nn(Cc3cccnc3)cc2c1` [Compound A13]?
IC50 (HDAC2): < 1000 nM; % left 6H Hum hep [1]: A (50%<A); OPD [1]: No OPD

Which IC50 (HDAC2) does the source give for `Cc1ccc(Cn2ncc3cc(C(=O)Nc4ccccc4N)ccc32)c(C)n1` [Compound A5] here?
The IC50 was less than 1000 nM.

And the “% left 6H Hum hep” value [1]?
The value was “B (50%>B>30%)”.

And the OPD [1]?
Its OPD is “No OPD”.

With `Nc1cc(F)ccc1NC(=O)c1ccc2c(cnn2CC2CC2)c1` [Compound A12] as the compound, how does the “Acid Stability % Left 24 hr” value [2] read?
The value was “B (B is between 40 and 60%)”.

And the IC50 (HDAC2)?
Its IC50 is 5000 to 10000 nM.

And the “% left 6H Hum hep” value [1]?
The value was “C (30%>C>10%)”.

And the OPD [1]?
The OPD was “No OPD”.

From US10428028B2, “HDAC inhibitors” (BIOMARIN PHARMACEUTICAL INC., priority 2013, dated 2019)
